Assays:
[1] = Wavelength at maximum absorption and molar absorptivity of the cyanine compounds; type: physicochemical
Solubility in solvent = type: physicochemical; settings: diacetone alcohol, room temperature
Protocol: Each of cyanine dyes as shown below in Table 2 was dissolved in diacetone alcohol and the solubility was measured at room temperature.

Row | Structure (SMILES) | wavelength at maximum absorption (λmax) ([1]; methanol) [nm] | molar absorptivity (ε) [1] [L/mol/cm] | Solubility (g/l) (Solubility in solvent) | wavelength at maximum absorption (λmax) ([1]; diacetone alcohol) [nm] | Solubility (Solubility in solvent) [mg/mL] | wavelength at maximum absorption (λmax) ([1]; solvent not given) [nm]
1 | COCCN1C(=CC=CC=CC=CC2=[N+](CCOC)c3cc4c(cc3C2(C)C)OCO4)C(C)(C)c2cc3c(cc21)OCO3 [Preparation Example 3] | 793 |  |  |  |  | 
2 | CCCCN1C(=CC=CC=CC2=[N+](CCCC)c3cc4c(cc3C2(C)C)OCO4)C(C)(C)c2cc3c(cc21)OCO3 [Preparation Example 1] | 696 | 176000 | At least 30 g/l |  |  | 
3 | CCOCCN1C(=CC=CC=CC2=[N+](CCOCC)c3cc4c(cc3C2(C)C)CCC4)C(C)(C)c2cc3c(cc21)CCC3 [Preparation Example 7] |  | 220000 |  | 672 | 30 | 
4 | CC1(C)C(=CC=CC=CC=CC2=[N+](CCS(=O)(=O)O)c3cc4c(cc3C2(C)C)OCO4)N(CCS(=O)(=O)O)c2cc3c(cc21)OCO3 [Preparation Example 11] | 790 | 160000 |  |  |  | 
5 | CC1(C)C(=CC=CC=CC2=[N+](CCO)c3cc4c(cc3C2(C)C)OCO4)N(CCO)c2cc3c(cc21)OCO3 [Preparation Example 10] |  |  | At least 30 g/l | 695 |  | 
6 | CCCCN1C(=CC=CC=CC=CC2=[N+](CCCC)c3cc4c(cc3C2(C)C)OC(C)C4)C(C)(C)c2cc3c(cc21)CC(C)O3 (centres unmarked) [Preparation Example 12] | 795 | 193000 |  |  |  | 
7 | CCCCN1C(=CC=CC=CC2=[N+](CCCC)c3cc4c(cc3C2(C)C)CCC4)C(C)(C)c2cc3c(cc21)CCC3 [Preparation Example 6] |  | 224000 |  | 670 |  | 
8 | CC(=O)OCCN1C(=CC=CC=CC=CC2=[N+](CCOC(C)=O)c3cc4c(cc3C2(C)C)CCC4)C(C)(C)c2cc3c(cc21)CCC3 [Preparation Example 8] |  | 228000 |  |  |  | 768
9 | CCN1C(=CC=CC=CC2=[N+](CC)c3cc4c(cc3C2(C)C)OCO4)C(C)(C)c2cc3c(cc21)OCO3 [Preparation Example 2] | 694 |  |  |  | 30 | 
10 | CCCCN1C(=CC=CC=CC2=[N+](CCCC)c3cc4c(cc3C2(C)C)OC(C)C4)C(C)(C)c2cc3c(cc21)CC(C)O3 (centres unmarked) [Preparation Example 4] |  | 194000 | At least 30 g/l | 695 |  | 
11 | CCCCN1C(=CC=CC=CC2=[N+](CCCC)c3cc4c(cc3C2(C)C)CC(C)O4)C(C)(C)c2cc3c(cc21)OC(C)C3 (centres unmarked) [Preparation Example 5] |  | 190000 | At least 30 g/l | 688 |  | 
12 | COCCN1C(=CC=CC=CC=CC2=[N+](CCOC)c3cc4c(cc3C2(C)C)CCC4)C(C)(C)c2cc3c(cc21)CCC3 [Preparation Example 9] |  |  |  |  |  | 768
